Data set [1] deals with MRSA bacteraemia isolates. The experiment in a line: BDM-I MIC by broth microdilution (BMD), collection of clinical MRSA isolates. Format: cell-based, Staphylococcus aureus. As to conditions: clinical MRSA isolates with varying vancomycin susceptibilities. The procedure:
(§1) One-hundred and three MRSA bacteraemia isolates (from Liverpool Hospital, Sydney, Australia) were selected for this study. BDM-I MICs were determined by the broth microdilution method (BMD) as described by the CLSI (Clinical Laboratory Standards Institute, Methods for Dilution Antimicrobial Susceptibility Tests for Bacteria That Grow Aerobically: Ninth Edition: Approved Standard M07-A9, CLSI, Wayne, Pa., USA, 2012) using CAMHB (Oxoid-Thermo Fisher, Hampshire, UK). BDM-I concentrations ranged from 1 to 10 mg/L in 1 mg/L increments. All isolates had previously undergone vancomycin MIC testing and hVISA/VISA characterization (van Hal, Barbagiannakos et al., 2011; van Hal, Jones et al., 2011). Statistical analysis to determine correlation between variables was completed using the Spearman's test; with P<0.05 considered significant. Calculations were completed using SPSS statistical software (version 22.0; SPSS Inc, Chicago, Ill., USA).
(§2) The BDM-I MICs for a collection of clinical MRSA isolates, with varying vancomycin susceptibilities, were determined using the BMD method.

Data set [2] deals with VSSA MRSA isolates (n = 43). The experiment in a line: MIC by BMD, MRSA isolates of VSSA phenotype. It counts as cell-based. The settings on record: Staphylococcus aureus, VSSA isolates (n = 43). The protocol: as §1, §2
Data set [3] relates to hVISA MRSA isolates (n = 54). Description: MIC by BMD, MRSA isolates of hVISA phenotype. The settings on record: Staphylococcus aureus, hVISA isolates (n = 54). Format: cell-based. The procedure: as §1, §2
The test system of data set [4] is VISA MRSA isolates (n = 6). The experiment in a line: MIC by BMD, MRSA isolates of VISA phenotype. It counts as cell-based. As to conditions: Staphylococcus aureus, VISA isolates (n = 6). The procedure:
as §1, §2

Data set [5] has as its system MRSA isolate Sa375 (VISA). The experiment in a line: microbe, parasite or virus in culture. It counts as cell-based, Staphylococcus aureus. As to conditions: for MIC: Staphylococcus aureus.
In data set [6] the test system is vanB VRE clinical isolates. Description: BDM-I and vancomycin checkerboard assay (broth microdilution, FICI). It counts as cell-based, Enterococcus faecium. The settings on record: vancomycin combined with BDM-I at fixed concentrations, vanB VRE isolate; FICI ≤0.5 indicates synergy. (Broth dilution looks for growth in wells or tubes with falling amounts of substance.)

Data set [7] has as its system many Gram-negative and most Gram-positive bacterial species as well as many fungal species. The settings on record: literature report; cited from earlier work.
In data set [8] the test system is Mycobacterium tuberculosis. The settings on record: literature report; cited from earlier work.
A further data set has as its system Plasmodium falciparum. As to conditions: literature report; cited from earlier work.
The test system of another data set is mice. As to conditions: mouse, in vivo; cited from earlier work.
A further data set relates to chickens. The settings on record: in vivo; cited from earlier work.
For data set [9] the following is noted: in vivo; cited from earlier work.
The subject of data set [10] is VSSA MRSA isolates (n = 43). As to conditions: VSSA isolates (n = 43), BMD, previously determined; cited from earlier work.
For data set [11], the system named is hVISA MRSA isolates (n = 54). The settings on record: hVISA isolates (n = 54), BMD, previously determined; cited from earlier work.
Data set [12] relates to VISA MRSA isolates (n = 6). As to conditions: VISA isolates (n = 6), BMD, previously determined; cited from earlier work.
For data set [13], the system named is vancomycin intermediate-resistant S. aureus (VISA). As to conditions: MRSA isolate reported in Japan in 1997 (VISA); cited from earlier work.
Data set [14] concerns vancomycin-resistant S. aureus (VRSA) strain. The settings on record: first VRSA strain, United States 2002; cited from earlier work.

Converted amounts (≈) assume the structure as drawn. Where two headings read alike, the source gives them in different places.

For orientation: MIC50 means the lowest concentration that inhibits either 50% of growth or 50% of the strains tested, depending on the study.

On to `C/C(=C\c1ccc2c(c1)OCO2)[N+](=O)[O-]` [BDM-I, 3,4-methylenedioxy-β-methyl-β-nitrostyrene], for which, in data set [1], the “BDM-I MIC (range over isolates)” value was in the range of 2 to 5 µg/mL. The MIC50 was 1.71 µg/mL (≈ 8.25 µM) in [2] (read-out: BDM-I MIC50), 1.64 µg/mL (≈ 7.92 µM) in [3] (read-out: BDM-I MIC50) and 1.25 µg/mL (≈ 6.03 µM) in [4] (read-out: BDM-I MIC50). The MIC in [2] (read-out: BDM-I MIC (average)) amounted to 3.42 µg/mL (≈ 16.5 µM); in [3] (read-out: BDM-I MIC (average)), 3.28 µg/mL (≈ 15.8 µM); in data set [4] (read-out: BDM-I MIC (average)), 2.5 µg/mL (≈ 12.1 µM); in [5] (read-out: BDM-I MIC, Sa375 before passage in BDM-I) it was 2 µg/mL (≈ 9.65 µM); in data set [5] (read-out: BDM-I MIC, Sa375 day 110 colonies (21 out of 21)), 5 µg/mL (≈ 24.1 µM). Besides, the “BDM-I MIC increase” value in [5] (Sa375, day 110 vs start, 21 out of 21 colonies) came to 3 µg/mL. In addition, in data set [6], the “Interaction with vancomycin (checkerboard, FICI)” value was “synergistic activity”. Moreover, the Antimicrobial spectrum result in [7] is on record as “broadly microbicidal”. Also, in data set [8], the “Activity against Mycobacterium tuberculosis” value was “active”. In the data set with Plasmodium falciparum, the “Activity against Plasmodium falciparum” value is listed as “active”. The Oral toxicity result in the data set on mice and in the data set on chickens was “low oral toxicity” throughout. The “Absorption from the intestinal tract” value in data set [9] is “poorly absorbed”.
Regarding `CN[C@H](CC(C)C)C(=O)N[C@H]1C(=O)N[C@@H](CC(N)=O)C(=O)N[C@H]2C(=O)N[C@H]3C(=O)N[C@H](C(=O)N[C@H](C(=O)O)c4cc(O)cc(O)c4-c4cc3ccc4O)[C@H](O)c3ccc(c(Cl)c3)Oc3cc2cc(c3O[C@@H]2O[C@H](CO)[C@@H](O)[C@H](O)[C@H]2O[C@H]2C[C@](C)(N)[C@H](O)[C@H](C)O2)Oc2ccc(cc2Cl)[C@H]1O` [Vancomycin], the MIC in [5] (read-out: Vancomycin MIC) stood at 4 µg/mL (≈ 2.76 µM). The results for the “Vancomycin MIC50” value in [10], in data set [11] and in [12] were 0.58 µg/mL, 0.96 µg/mL and 1.1 µg/mL, respectively. The “Vancomycin MIC (average)” value in data set [10] is 1.16 µg/mL; in [11], 1.92 µg/mL; in data set [12] it was 2.2 µg/mL. The results for the “vancomycin MIC” value in [13] and in data set [14] were 3 to 8 µg/mL and “greater than 100 μg/mL”, respectively.
